These results are taken from patent US8309730B2, “Nonsteroidal compounds useful as modulators of glucocorticoid receptor AP-1 and/or NF-kappab acitivity and use thereof” (Bristol-Myers Squibb Company, priority 2007, dated 2012).

SMILES strings stand for the structures.

This experiment has as its system AP-1 induced transcriptional activity. The experiment is described as follows: Cellular Transrepressional Assay (AP-1 luciferase reporter in A549 cells). Particulars: Homo sapiens, A549 cells stably transfected with pAP-1-Luc, 10 ng/ml PMA, 7 hours; for Emax: maximum inhibition, read-out: AP-1 Max % inh (Cellular Transrepression Assay); for EC50: read-out: AP-1 EC50, nM (Cellular Transrepression Assay). In kind it is cell-based. Here is the method:
To measure the ability of test molecules to inhibit AP-1 induced transcriptional activity we utilized an A549 cell which was stably transfected with a plasmid containing 7×AP-1 DNA binding sites (pAP-1-Luc plasmid, Stratagene Co. La Jolla, Calif.) followed by the gene for luciferase. Cells were activated with 10 ng/ml of phorbol myristic acid (PMA) plus or minus test molecules for 7 hours. After 7 hours a luciferase reagent was added to measure luciferase enzymatic activity in the cell. After a 10 minute incubation of luciferase reagent with cells, luminescence was measured in a TopCount luminescence counter. Repression of AP-1 activity was calculated as the percentage decrease in the signal induced by PMA alone. Test molecules were analyzed in the concentration range from 0.1 nM to 40 μM. EC50 values were determined by using standard curve fitting methods such as Excel fit (Microsoft Co.).
(In a reporter assay the amount or activity of a reporter protein is the signal.)

The term EC50 denotes the midpoint of the concentration-response curve.

In the case of `C[C@]12Cn3cnc(-c4ccccc4)c3C=C1CCC[C@@H]2[C@](C)(O)c1csc2ccccc12` (racemic) [Example 15], the Emax amounted to 42.7% and the EC50 was determined as 145 nM.

Regarding `C[C@]12Cn3cnc(-c4ccccc4)c3C=C1CCC[C@@H]2[C@](C)(O)c1csc2ccccc12` (single isomer, unassigned) [Example 31], the Emax is 41.2% and the EC50 was found to be 181 nM.

On to `C[C@]12Cn3cnc(-c4ccc(F)cc4)c3C=C1CCC[C@@H]2[C@](C)(O)c1cccs1` [Example 1, (S)-1-((5aR,6S)-1-(4-Fluorophenyl)-5a-methyl-5,5a,6,7,8,9-hexahydroimidazo[1,5-b]isoquinolin-6-yl)-1-(thiophen-2-yl)ethanol], for which the Emax came to 38.1% and the 50% effective concentration (EC50) came out at 21.4 nM.

Regarding `CN(C)C(=O)c1ccc([C@@](C)(O)[C@H]2CCCC3=Cc4c(-c5ccc(F)cc5)ncn4C[C@@]32C)s1` [Example 3, 5-((S)-1-((5aR,6S)-1-(4-Fluorophenyl)-5a-methyl-5,5a,6,7,8,9-hexahydroimidazo[1,5-b]isoquinolin-6-yl)-1-hydroxyethyl)-N,N-dimethylthiophene-2-carboxamide], the Emax is 29.5% and the EC50 is 267 nM.

Turning to `C[C@]12Cn3cnc(-c4ccc(F)cc4)c3C=C1CCC[C@@H]2CCNc1nncs1` [Example 5, N-(2-((5aR,6R)-1-(4-Fluorophenyl)-5a-methyl-5,5a,6,7,8,9-hexahydroimidazo[1,5-b]isoquinolin-6-yl)ethyl)-1,3,4-thiadiazol-2-amine], the Emax was 22.6% and the EC50 turned out to be 98 nM.

Regarding `C[S+]([O-])c1cccc([C@@](C)(O)[C@H]2CCCC3=Cc4c(-c5ccc(F)cc5)ncn4C[C@@]32C)c1` (stereo partly drawn) [Example 8b, (1S)-1-((5aR,6S)-1-(4-fluorophenyl)-5a-methyl-5,5a,6,7,8,9-hexahydroimidazo[1,5-b]isoquinolin-6-yl)-1-(3-(methylsulfinyl)phenyl)ethanol], the Emax amounted to 40.7% and the EC50 turned out to be 236 nM.

With `CC(C)(O)c1cccc([C@@](C)(O)[C@H]2CCCC3=Cc4c(-c5ccc(F)cc5)ncn4C[C@@]32C)c1` [Example 9, 2-(3-((S)-1-((5aR,6S)-1-(4-Fluorophenyl)-5a-methyl-5,5a,6,7,8,9-hexahydroimidazo[1,5-b]isoquinolin-6-yl)-1-hydroxyethyl)phenyl)propan-2-ol], the Emax stood at 34.3% and the EC50 came to 144 nM.

For the molecule `C[C@]12Cn3cnc(-c4ccc(F)cc4)c3C=C1CCC[C@@H]2[C@](C)(O)C(F)(F)F` [Example 10, (S)-1,1,1-Trifluoro-2-((5aR,6S)-1-(4-fluorophenyl)-5a-methyl-5,5a,6,7,8,9-hexahydroimidazo[1,5-b]isoquinolin-6-yl)propan-2-ol], the Emax worked out at 31.3% and the EC50 turned out to be 30.9 nM.

Regarding `C[C@]12Cn3cnc(-c4ccc(F)cc4)c3C=C1CCC[C@@H]2[C@](C)(O)c1ccc(F)cc1` [Example 48], the Emax stood at 35.6% and the EC50 came out at 11.9 nM.

Regarding `C[C@]12Cn3cnc(-c4ccc(F)cc4)c3C=C1CCC[C@@H]2[C@](C)(O)c1ccc(Cl)cc1` [Example 53], the Emax was determined as 44.6% and the EC50 was 63.2 nM.

Turning to `C[C@]12Cn3cnc(-c4ccc(F)cc4)c3C=C1CCC[C@@H]2[C@](C)(O)c1ccsc1` [Example 54], the Emax turned out to be 42.7% and the EC50 came out at 4.67 nM.

Take `C[C@]12Cn3cnc(-c4ccc(F)cc4)c3C=C1CCC[C@@H]2[C@](C)(O)Cc1ccc(F)cc1` [Example 55]: the Emax came out at 53.7% and the EC50 amounted to 84.2 nM.

With `C[C@]12Cn3cnc(-c4ccc(F)cc4)c3C=C1CCC[C@@H]2[C@](C)(O)c1ccc(F)c(Cl)c1` [Example 56], the Emax was found to be 39.6% and the EC50 stood at 19.3 nM.

For `C=CC[C@@](C)(O)[C@H]1CCCC2=Cc3c(-c4ccc(F)cc4)ncn3C[C@@]21C` [Example 57], the Emax turned out to be 55.9% and the EC50 worked out at 56.6 nM.

Take `C[C@]12Cn3cnc(-c4ccc(F)cc4)c3C=C1CCC[C@@H]2[C@](C)(O)C1CC1` [Example 58]: the Emax worked out at 35.8% and the EC50 was determined as 36.8 nM.

Regarding `Cc1ccc([C@@](C)(O)[C@H]2CCCC3=Cc4c(-c5ccc(F)cc5)ncn4C[C@@]32C)s1` [Example 60], the Emax was determined as 48.3% and the EC50 is 31.3 nM.

`Cc1ccsc1[C@@](C)(O)[C@H]1CCCC2=Cc3c(-c4ccc(F)cc4)ncn3C[C@@]21C` [Example 61]: the Emax was determined as 58.8% and the EC50 worked out at 11.6 nM.

In the case of `C[C@]12Cn3cnc(-c4ccc(F)cc4)c3C=C1CCC[C@@H]2[C@](C)(O)c1ccc(Cl)s1` [Example 62], the Emax turned out to be 61.2% and the 50% effective concentration (EC50) amounted to 5.48 nM.

As for `CC(C)(C)C[C@@](C)(O)[C@H]1CCCC2=Cc3c(-c4ccc(F)cc4)ncn3C[C@@]21C` [Example 63], the Emax was 47.5% and the EC50 was 31.5 nM.

As for `Cc1ccc([C@@](C)(O)[C@H]2CCCC3=Cc4c(-c5ccc(F)cc5)ncn4C[C@@]32C)cc1` [Example 64], the Emax stood at 41.9% and the EC50 amounted to 4.26 nM.

Regarding `Cc1cccc([C@@](C)(O)[C@H]2CCCC3=Cc4c(-c5ccc(F)cc5)ncn4C[C@@]32C)c1` [Example 65], the Emax was determined as 46.7% and the EC50 came to 9.75 nM.

As to `Cc1ccccc1[C@@](C)(O)[C@H]1CCCC2=Cc3c(-c4ccc(F)cc4)ncn3C[C@@]21C` [Example 66], the Emax stood at 42.1% and the 50% effective concentration (EC50) is 4.6 nM.

In the case of `C[C@]12Cn3cnc(-c4ccc(F)cc4)c3C=C1CCC[C@@H]2[C@](C)(O)C1CCCCC1` [Example 67], the Emax came out at 44.3% and the concentration giving a half-maximal response (EC50) worked out at 1.99 nM.

For the molecule `CCCC[C@@](C)(O)[C@H]1CCCC2=Cc3c(-c4ccc(F)cc4)ncn3C[C@@]21C` [Example 68], the Emax came to 40.8% and the EC50 worked out at 33.9 nM.

With `C[C@]12Cn3cnc(-c4ccc(F)cc4)c3C=C1CCC[C@@H]2[C@](C)(O)c1ccccc1` [Example 71], the Emax is 32.5% and the EC50 was 3.02 nM.

For `Cc1ccc([C@@](C)(O)[C@H]2CCCC3=Cc4c(-c5ccc(F)cc5)ncn4C[C@@]32C)cc1F` [Example 74], the Emax amounted to 34.5% and the EC50 amounted to 14.3 nM.

For `CCc1ccccc1[C@@](C)(O)[C@H]1CCCC2=Cc3c(-c4ccc(F)cc4)ncn3C[C@@]21C` [Example 75], the Emax came out at 47.1% and the EC50 worked out at 41.6 nM.

Take `C[C@]12Cn3cnc(-c4ccc(F)cc4)c3C=C1CCC[C@@H]2[C@](C)(O)c1cccc(C#N)c1` [Example 83]: the Emax was 35.6% and the EC50 was determined as 19.2 nM.

`CSc1cccc([C@@](C)(O)[C@H]2CCCC3=Cc4c(-c5ccc(F)cc5)ncn4C[C@@]32C)c1` [Example 89]: the Emax stood at 45.3% and the EC50 was 20.8 nM.

For `COC(=O)c1ccc([C@@](C)(O)[C@H]2CCCC3=Cc4c(-c5ccc(F)cc5)ncn4C[C@@]32C)s1` [Example 92], the Emax was 47.4% and the EC50 came to 24.7 nM.

Regarding `C[C@]12Cn3cnc(-c4ccc(F)cc4)c3C=C1CCC[C@@H]2[C@](C)(O)C1CCOCC1` [Example 96], the Emax worked out at 42% and the EC50 worked out at 56.5 nM.

In the case of `COc1cccc([C@@](C)(O)[C@H]2CCCC3=Cc4c(-c5ccc(F)cc5)ncn4C[C@@]32C)c1` [Example 97], the Emax came to 39.6% and the EC50 came out at 95 nM.
